{
  "source": "patent US11639372B1",
  "about": "“Zinc-charged peptides for the treatment of cancer and alzheimer's disease” (priority 2021, dated 2023)",
  "key": {"[1]": {"test_system": "respiratory chain I", "experiment": "respiratory chain I activity, mitochondria isolated from HT-29 cells", "assay_type": "biochemical", "settings": "HT-29 colon cancer cells; 5 μM, 2 hours (FIG. 15a)", "method": "(§1) For the testing depicted in FIGS. 15a-15d, […] zinc-charged 4H3 was utilized and compared to a control. In this test, mitochondria was isolated from the cell line, and complex I and III activity was tested using a Cayman Mitocheck Complex I & III Activity Kit. […] However, the zinc-charged 4H3 increased the activity of respiratory chain I by 21% but inhibited respiratory chain III by 42% in normal CCD8Co colon cells."}, "[2]": {"test_system": "human pancreatic cancer Bx-PC3-G mouse orthotopic model", "experiment": "orthotopic pancreatic cancer model in mice", "assay_type": "in vivo", "settings": "oral, 21-day period", "method": "In this test, two doses of zinc-charged 4H3 and a control of only the vehicle were orally administered to mice with orthotopic pancreatic cancer. The zinc-charged 4H3 was administered in a “low dose” of 0.5 mg per mouse and a “high dose” of 1.0 mg per mouse."}, "[3]": {"test_system": "respiratory chain III", "experiment": "respiratory chain III activity, mitochondria of normal colon cells", "assay_type": "biochemical", "settings": "normal CCD8Co colon cells; 5 μM, 2 hours (FIG. 15d)", "method": "as §1"}, "[4]": {"test_system": "HT-29 colon cancer cells", "experiment": "apoptotic effect on HT-29 cells of saliva from a human volunteer after oral zinc-charged 4H3", "assay_type": "cell-based", "settings": "for time at which saliva-induced apoptotic activity peaked: human volunteer", "method": "It has been shown that the zinc-charged peptide induces apoptosis in various cancer lines. FIGS. 1a, 1b, and 2 show this effect of the zinc-charged peptide on the HT-29 cancer cell line after the zinc-charged peptide was given to a human volunteer. Specifically, 200 mg of zinc-charged 4H3 was orally given to the volunteer in a liquid form. The peptide mixture was an undialyzed sample, such that the zinc-charged 4H3 in the liquid had not yet been separated from the saturated EDTA and free zinc.\nSaliva samples were then collected from the volunteer at 4-, 6-, 8-, 9-, 12- and 17-hours post-ingestion of the zinc-charged 4H3. The saliva samples were then incubated with HT-29 cancer cells for either 14-hours or 24-hours to observe the apoptotic effect. FIG. 1a depicts the percentage of cell shrinkage and death of HT-29 colon cancer cells after incubation for 14- and 24-hours with the human saliva samples containing the zinc-charged 4H3 noted above. As shown, the saliva sample collected 4-hours post-ingestion has little effect on the HT-29 cancer cells. […] The saliva-induced apoptotic activity thus peaked at 9-hours post-ingestion.\nFIGS. 1B-f depicts microscopic slides of the HT-29 cancer cells after being incubated for […] with specific saliva samples. […] FIG. 1d depicts the saliva sample taken from the volunteer 4 hours after the zinc-charged peptide was ingested. FIGS. 1e and 1f depict saliva samples collected from the volunteer after 10-hour ingestion.\nFIG. 2 depicts a dry, solid sample of the zinc-charged 4H3 that was administered to a human volunteer. Specifically, 150 mg of zinc-charged 4H3 was orally given to the volunteer in a dry solid form. This sample was dialyzed, dried down, and had arginine added as an absorption enhancer such that the dried powder included only the zinc-charged 4H3 and arginine. As with the test shown in FIG. 1a, the saliva samples were taken from the human subject 0-, 3-, 6-, 9-, 12-, 15-, 18-, 21-, and 24-hours post-ingestion. The saliva samples were then incubated with HT-29 cancer cells, and their apoptotic activity recorded after 6-, 10-, 14-, and 24-hours."}, "[5]": {"experiment": "pharmacokinetic study, serum half-life", "assay_type": "in vivo"}, "[6]": {"test_system": "Tau protein", "experiment": "brain Tau protein in mice (ELISA)", "assay_type": "in vivo", "settings": "for decrease in brain Tau protein: 1 mg/mouse, 5 days, oral", "method": "(§2) FIGS. 11a-d provide the graphical representations of these observations. FIG. 11a depicts the level of brain ATP in mice that were orally administered zinc-charged 4H3 compared to mice who were given the control. […] FIG. 11b depicts the level of brain Tau protein ATP in mice that were orally administered zinc-charged 4H3 compared to mice who were given the control. In this test, a 2.7 μg protein load was utilized. […] FIG. 11c depicts a retest of FIG. 11b, but with a lower protein load utilized instead. […] Lastly, FIG. 11d depicts the brain P38 MAPK levels in mice that were orally administered zinc-charged 4H3 compared to mice who were given the control. In this test, the mice given the zinc-charged 4H3 saw their brain P38 MAPK levels decrease by 61%."}, "[7]": {"test_system": "cancer-associated fibroblasts", "experiment": "cellular ATP level in cancer-associated fibroblasts", "assay_type": "cell-based", "settings": "2 μM, 2 hours", "method": "FIGS. 12a-b display a cell culture study showing the ATP levels and hexokinase II activities of CAFs that were cultured with 2 μM zinc-charged 4H3 for 2 hours. […] These findings confirmed that the zinc-charged peptides caused ATP depletion and hexokinase II inhibition in CAFs."}, "[8]": {"test_system": "glutaminase", "experiment": "glutaminase activity in HT-29 cell lysate", "assay_type": "cell-based", "settings": "HT-29, 2 μM, 30-90 minutes", "excerpt": "FIGS. 16a-b depict the zinc-charged peptides inhibiting glutaminase activity in HT-29 cancer cells. Glutaminase is another important enzyme responsible for the synthesis of ATP in mitochondria. […] The inhibition of the enzyme glutaminase, along with the inhibition of respiratory chains in cancer cells explain the depletion of ATP in cancer cells shown in FIG. 5."}, "[9]": {"test_system": "HT-29 cancer cells", "experiment": "tissue distribution: mouse tissue homogenates incubated with HT-29 cells, percentage of cells under apoptosis", "assay_type": "cell-based", "settings": "mice, five days administration", "method": "These observations were confirmed by studying the tissue distribution of the zinc-charged 4H3 in mice after five days administration, as shown in FIG. 3. For these tests, tissue homogenates were taken from the mice five days after receiving the zinc-charged 4H3, then prepared and incubated with HT-29 cancer cells for various times, followed by the determination of the percentage of cell under apoptosis."}, "[10]": {"test_system": "respiratory chain III", "experiment": "respiratory chain III activity, mitochondria isolated from HT-29 cells", "assay_type": "biochemical", "settings": "HT-29 colon cancer cells; 5 μM, 2 hours (FIG. 15b)", "method": "as §1"}, "[11]": {"test_system": "P38 MAPK", "experiment": "brain P38 MAPK level in mice", "assay_type": "in vivo", "settings": "1 mg/day for 5 days, oral", "method": "as §2"}, "[12]": {"experiment": "brain ATP level in mice fed zinc-charged 4H3", "assay_type": "in vivo", "settings": "1 mg/day for 5 days, oral", "method": "as §2"}, "[13]": {"test_system": "respiratory chain I", "experiment": "respiratory chain I activity, mitochondria of normal colon cells", "assay_type": "biochemical", "settings": "normal CCD8Co colon cells; 5 μM, 2 hours (FIG. 15c)", "method": "as §1"}},
  "note": "Several values for one entry are separate records, joined by “and”; a condition that tells them apart may be missing. Identical values can stand only once. Ends that are not written are not given here.",
  "data": [
    {"sequence": "EYGLFQISNKK [zinc-charged 4H3]", "values": [
      {"measurement": "inhibition of respiratory chain I", "setting": "[1]", "value": 70.9, "unit": "%"},
      {"measurement": "reduction of mean tumor size", "setting": "[2]; high dose 1.0 mg per mouse", "value": 38.0, "unit": "%"},
      {"measurement": "reduction of mean tumor size", "setting": "[2]; low dose 0.5 mg per mouse", "value": 28.1, "unit": "%"},
      {"measurement": "inhibition of respiratory chain III", "setting": "[3]", "value": 42, "unit": "%"},
      {"measurement": "time at which saliva-induced apoptotic activity peaked", "setting": "[4]; 150 mg oral, dry solid form with arginine", "value": 12, "unit": "h"},
      {"measurement": "time at which saliva-induced apoptotic activity peaked", "setting": "[4]; 200 mg oral, liquid form, undialyzed", "value": 9, "unit": "hours post-ingestion"},
      {"measurement": "effect of saliva sample on HT-29 cancer cells", "setting": "[4]; saliva 4 hours after ingestion, 36 hours incubation", "value": "very little effect"},
      {"measurement": "effect of saliva sample on HT-29 cancer cells", "setting": "[4]; saliva after 10-hour ingestion, 36 hours incubation", "value": "clear apoptosis activity"},
      {"measurement": "effect of saliva sample on HT-29 cancer cells", "setting": "[4]; saliva collected 4-hours post-ingestion, 14- and 24-hour incubation, 200 mg liquid", "value": "little effect"},
      {"measurement": "effect of saliva sample on HT-29 cancer cells", "setting": "[4]; saliva collected 10-hours post-ingestion, 14-hour and 24-hour incubations, 200 mg liquid", "value": "cell rounded up, cell shrinkage, and membrane blebbing"},
      {"measurement": "half-life", "setting": "[5]", "value": 480, "unit": "min"},
      {"measurement": "reduction of Tau protein in the brain", "setting": "[6]; 1 mg/day for 5 days, both protein loads", "value": "22.4-27.5%"},
      {"measurement": "decrease in brain Tau protein", "setting": "[6]; 0.55 μg protein load", "value": 22.4, "unit": "%"},
      {"measurement": "decrease in brain Tau protein", "setting": "[6]; 2.7 μg protein load", "value": 27.5, "unit": "%"},
      {"measurement": "reduction of ATP levels in CAFs", "setting": "[7]", "value": 95.6, "unit": "%"},
      {"measurement": "amount of glutamate and alpha-ketoglutarate", "setting": "[8]", "value": "lower amount"},
      {"measurement": "glutaminase activity in the cell lysate", "setting": "[8]", "value": "significantly lower glutaminase activity"},
      {"measurement": "apoptosis activity of tissue homogenate", "setting": "[9]; colon", "value": "did not display any apoptosis activity"},
      {"measurement": "apoptosis activity of tissue homogenate", "setting": "[9]; jaw", "value": "did not display any apoptosis activity"},
      {"measurement": "apoptosis activity of tissue homogenate", "setting": "[9]; lung", "value": "did not display any apoptosis activity"},
      {"measurement": "apoptosis activity of tissue homogenate", "setting": "[9]; pancreas", "value": "contained apoptosis activity"},
      {"measurement": "inhibition of respiratory chain III", "setting": "[10]", "value": 71.2, "unit": "%"},
      {"measurement": "reduction of brain P38 MAPK", "setting": "[11]", "value": 61, "unit": "%"},
      {"measurement": "increase of brain ATP", "setting": "[12]", "value": "89.9% and 89.8%"},
      {"measurement": "increase of activity of respiratory chain I", "setting": "[13]", "value": 21, "unit": "%"}
    ]}
  ]
}
